These results are taken from patent US20140309184A1, “METHODS AND COMPOSITIONS FOR THE TREATMENT OF OVARIAN CANCER” (UNIVERSITY OF SOUTH ALABAMA, priority 2011, published 2014).

“Also recorded” adds a separate entry of the source.

Assay type in all cases: cell-based
Assay [1] relates to GLI1. The assay can be described thus: Localization of Gli1 by immunofluorescent staining in SKOV3 cells. The settings on record: SKOV3, 24 hours treatment. Here is the method:
Considering intranuclear Gli1 confers an activated Hh pathway, SKOV3 cells were evaluated for Gli1 location after BMS-833923 treatment and compared to control (no treatment). Cells were grown on Poly-L-Lysine coated Glass Coverslips (BD Bioscience) for overnight, then incubated with 5 μM BMS-833923 for 24 hours, respectively, fixed in 4% paraformaldehyde for 15 minutes at room temperature, washed with PBS and permeabilized with 0.25% Triton X-100 (Sigma) for 10 minutes. Primary antibody (Anti-human Gli1 antibody, Santa Cruz Biotechnology, Inc.) incubation followed for overnight at 4° C. After washing thoroughly with PBS, cells were further probed with secondary antibody (anti-rabbit IgG-FITC, Sigma) for one hour at room temperature. Nuclei were counterstained with diluted DAPI (Sigma) for 3 minutes before mounting and analyzing with microscope.
SKOV3 cells were treated with 2.5 μBMS-833923 and the cellular location of Gli1 determined at various times using immunofluorescence. Immunofluorescence analysis was performed as described above. In untreated control cell, Gli1 is concentrated in the nucleus at 24 hrs, indicating an activated Hh pathway. […] Both indicating restriction of Gli1 from the nucleus and inhibition of Hh pathway.

Assay [2] concerns SKOV3 cells. Briefly: MTS cell survival with BMS-833923 plus chemotherapy, Calcusyn combination index. The method, then:
An MTS in vitro assay was performed using chemotherapy agents commonly used for ovarian cancer (carboplatin, paclitaxel, gemcitabine, topotecan and liposomal doxorubicin) with or without BMS-833923. Ovarian cancer cells ES2, SKOV3, OV90 and TOV112D were seeded at a density of 4,000 cells/well in 96-well tissue culture plates. The following day, fresh medium was added to each well and treated with IC50 concentrations of BMS-833923 as well as the aforementioned chemotherapies and kept at 37° C. in a humidified 5% CO2 atmosphere. Every 24 hr, 20 μl/well of MTS reagent were added in 96 well plates and stored in 37° C. incubator for about 3 hr followed by absorbance reading at 490 nm. The assay was carried out up to 72 hrs at various concentrations described herein.
With a cross-diagonal multidrug treatment design, the combination index (CI) was calculated to determine mathematical synergy using the median effect method per Calcusyn software (Biosoft, Ferguson, Mo.). This software utilizes multiple drug dose-effect calculations using the Median Effect methods (Chou T. C., et al., Trends Pharmacol. Sci. 4, 450-454). […] The fraction of cells affected (Fa) by carboplatin and BMS-833923 was used to calculate dose response curves and the CI. Statistically Calcusyn quantifies phenomena such as synergism vs. additive effects as well as inhibition (antagonism). Calcusyn software defines synergy as a CI value<1 with the extent of synergism stratified as follows: Possible Synergy: 1.0-0.91; Moderate Synergy: […]; and Clear Synergy: 0.7-0.3. A CI=1 may be indicative of additivity; a CI>1 may be indicative of antagonism.
Combination indices were calculated to determine mathematical synergy using the median effect method per Calcusyn software (Biosoft, Ferguson, Mo.) as described above. Monolayers of SKOV3 cells were contacted with various chemotherapeutic agents, and BMS-833923 in combination with various chemotherapeutic agents. The chemotherapeutic agents included Carboplatin, Taxol™, Gemzar™, Topotecan (Hycamtim™), and Doxil™. The percentage survival of the contacted SKOV3 cells was measured over 72 hours. Synergistic effects were calculated statistically using Calcusyn™ Software. A combination index (CI) less than 1 indicates synergy; a CI equal to 1 indicates additivity; a CI greater than 1 indicated antagonism.
Combination indices were calculated to determine mathematical synergy using the median effect method per Calcusyn software (Biosoft, Ferguson, Mo.) as described above. […] Per prior definitions this represents Clear Synergy defined as CI<0.7. This level of synergy would result in a 2- to 14-fold reduction of carboplatin dose required with the addition of BMS-833923. (Table 5 and FIG. 9).
The dose reduction index (DRI) was determined for experimental values using the Calcusyn software package, with the relative CI and the fraction affected to determine the relative reduction in a dose to achieve similar effects with a single agent (Table 6).

Assay [3] concerns PTCH. The assay can be described thus: Quantitative RT-PCR of Hedgehog pathway mediators in SKOV3 cells. The method, then: (§1) Total RNA was isolated using Trizol reagent from ovarian cancer cell line monolayer and spheroids-forming cells according to the manufacturer instructions (Invitrogen Corporation, Carlsbad, Calif.) and cDNA was prepared using High Capacity Reverse Transcriptase Kit (Applied Biosystem, Foster City, Calif.). Real-time PCR was performed using a Bio-Rad iQ5 Real-time Detection system (Bio-Rad). All reactions were done as three independent replicates. All assays were done using the TaqMan Gene Expression Assays from Applied Biosystems. Primers and probes for the TaqMan system were selected from the Applied Biosystems website. [Gli1 assay ID: Hs01110766 ml, Patched (PTCH) assay ID: Hs00970980 ml. The relative expression mRNA levels of GLI1, and PTCH were normalized to internal control glyceraldehyde-3-phosphate dehydrogenase (assay ID: Hs99999905 ml) levels (2^−δδCT).
(§2) Quantitative realtime PCR (RT-PCR) was performed as described above. To assess the effects of inhibition of SMO by BMS-833923, levels of GLI1 and PTCH were measured by quantitative RT-PCR. SKOV3 ovarian cancer cell line was treated with 2.5 μM BMS-833923 for 24 hr and 48 hr and compared to untreated controls.

The test system of assay [4] is GLI1. The assay is described as above. Here is the method: as §1, §2

Take `CNCc1ccc(C)c(NC(=O)c2ccc(Nc3nc(-c4ccccc4)c4ccccc4n3)cc2)c1` [BMS-833923, N-{2-methyl-5-[(methylamino)methyl]phenyl}-4-[(4-phenylquinazolin-2-yl)amino]benzamide]: in assay [1], the “cellular location of Gli1” value is “near complete exclusion of intranuclear GLl1; also recorded: Gli1 being excluded from the nucleus”. Besides, the “BMS-833923 DRI” value is 2.314 in assay [2] (fraction affected 16.6%), 3.223 in assay [2] (fraction affected 29.1%), 3.120 in assay [2] (fraction affected 38.4%) and 3.330 in assay [2] (fraction affected 41.8%). In addition, the “BMS-833923 single agent dose to achieve the fraction affected” value is 9.2573 µM in assay [2] (fraction affected 16.6%), 12.8916 µM in assay [2] (fraction affected 29.1%), 15.6024 µM in assay [2] (fraction affected 38.4%) and 16.6516 µM in assay [2] (fraction affected 41.8%). The “PTCH activity compared to untreated controls” value in assay [3] (SKOV3, 2.5 μM, 24 hr and 48 hr) is “down-regulation in activity”. Moreover, in assay [3] (as stated in the description), the “downregulation of PTCH protein compared to untreated controls” value is 3 fold. Besides, in assay [4] (SKOV3, 2.5 μM, 24 hr and 48 hr, vs untreated), the “decrease in GLI1 activity (RTQ)” value was determined as 10 fold. Further, the “downregulation of GLI1 protein compared to untreated controls” value in assay [4] (as stated in the description) amounted to 5 fold.
